# Test results published in patent publication US20090227533A1, “miR-34 Regulated Genes and Pathways as Targets for Therapeutic Intervention” (priority 2007, published 2009).
# How the values were obtained:
# [1] = system: prostate cancer cells (22Rv1); details: cited from earlier work
# [2] = system: H460 non-small cell lung cancer xenografts; assay: Tumor growth of human lung cancer xenografts, intratumoral injection; assay type: in vivo, NOD/SCID mice
# Text: The inventors assessed the growth-inhibitory activity of hsa-miR-34a in human lung cancer xenografts grown in immunodeficient mice. Each 3×10^6 human H460 non-small cell lung cancer cells were mixed with BD Matrigel™, (BD Biosciences; San Jose, Calif., USA; cat. no. 356237) in a 1:1 ratio and subcutaneously injected into the lower back of 23 NOD/SCID mice (Charles River Laboratories, Inc.; Wilmington, Mass., USA). Once animals developed palpable tumors (day 11 post xenograft implantation), a group of six animals received intratumoral injections of each 6.25 μg hsa-miR-34a (Dharmacon, Lafayette, Colo.) formulated with the lipid-based siPORT™ amine delivery agent (Ambion, Austin, Tex.; cat. no. AM4502) on days 11, 14, and 17. A control group of six animals received intratumoral injections of each 6.25 μg negative control miRNA (NC; Dharmacon, Lafayette, Colo.), following the same injection schedule that was used for hsa-miR-34a. Given an average mouse weight of 20 g, this dose equals 0.3125 mg/kg. […] Caliper measurements were taken every 1-2 days, and tumor volumes were calculated using the formula, Volume=length×width×width/2, in which the length is greater than the width. Average tumor volumes, standard deviations and p-values were calculated and plotted over time (FIG. 4).
substance,measurement,setting,value
"hsa-miR-34a: synthetic miRNA; mature sequence UGGCAGUGUCUUAGCUGGUUGUU (MIMAT0000255; SEQ ID NO:1) (synthetic miRNA, chemistry not given here)",proliferation,[1],inhibits the proliferation
same,average tumor volume,"[2]; day 19, 6.25 μg intratumoral in siPORT amine on days 11, 14, 17, n=6",196 mm^3
same,growth of established H460 lung tumors,[2]; three intratumoral doses,robustly inhibited growth
